Ends that are not written are not given here.

We go through one sequence from US5744449A (priority 1996, dated 1998).

One assay concerns C. atrox venom. The conditions noted are these: in vivo.
In the next assay the test system is Sea snake venom. Conditions: in vivo.
The test system of another assay is V. russellii venom. The conditions noted are these: in vivo.
Assay [1] relates to venoms and their lethal toxins. On the set-up: species or system mice. Conditions: mouse.
A further assay concerns O. s. scutellatus venom. The conditions noted are these: in vivo.
For another assay, the system named is N. n. kaouthia venom. Conditions: in vivo.

In the case of LKAMDPTPPLWIKTE [LTNF-15], the “Death/Survival Group II (LTNF Immediately)” value with C. atrox venom, in the assay on Sea snake venom, with V. russellii venom, with O. s. scutellatus venom and in the assay on N. n. kaouthia venom was 0/3 each time. For the same sequence, the “Death/Survival Group III (LTNF 1/2 hr before)” value in the assay with C. atrox venom, in the assay on Sea snake venom, in the assay with V. russellii venom, with O. s. scutellatus venom and in the assay on N. n. kaouthia venom was 0/3 each time. The “neutralization of venoms and their lethal toxins in vivo” value in assay [1] is “neutralized in vivo”.
